Assay results from patent publication US12528767B2, “HDAC6 inhibitors and uses thereof” (Eikonizo Therapeutics, Inc., priority 2019, dated 2026).
Read-outs that look alike come from different tables or passages of the source.

Legend:
[1] = In vivo assessment of brain penetration in mice (IV 1 mg/kg, plasma and brain levels); details: mouse, BL/6 mice; for Kp at 15 min / Kp at 60 min: brain and plasma, brain:plasma; for Kp at 15 min: read-out: Mouse B:P at 15 min; for Kp at 60 min: read-out: Mouse B:P at 60 min
Full length Human HDAC6 = biological target: T1, Full length Human HDAC6 (Homo sapiens, UniProt Q9UBN7); details: for Selectivity (6 v 8) (fold): ratio of HDAC8 IC50/HDAC6 IC50
T1 sequence (Q9UBN7 1-1215): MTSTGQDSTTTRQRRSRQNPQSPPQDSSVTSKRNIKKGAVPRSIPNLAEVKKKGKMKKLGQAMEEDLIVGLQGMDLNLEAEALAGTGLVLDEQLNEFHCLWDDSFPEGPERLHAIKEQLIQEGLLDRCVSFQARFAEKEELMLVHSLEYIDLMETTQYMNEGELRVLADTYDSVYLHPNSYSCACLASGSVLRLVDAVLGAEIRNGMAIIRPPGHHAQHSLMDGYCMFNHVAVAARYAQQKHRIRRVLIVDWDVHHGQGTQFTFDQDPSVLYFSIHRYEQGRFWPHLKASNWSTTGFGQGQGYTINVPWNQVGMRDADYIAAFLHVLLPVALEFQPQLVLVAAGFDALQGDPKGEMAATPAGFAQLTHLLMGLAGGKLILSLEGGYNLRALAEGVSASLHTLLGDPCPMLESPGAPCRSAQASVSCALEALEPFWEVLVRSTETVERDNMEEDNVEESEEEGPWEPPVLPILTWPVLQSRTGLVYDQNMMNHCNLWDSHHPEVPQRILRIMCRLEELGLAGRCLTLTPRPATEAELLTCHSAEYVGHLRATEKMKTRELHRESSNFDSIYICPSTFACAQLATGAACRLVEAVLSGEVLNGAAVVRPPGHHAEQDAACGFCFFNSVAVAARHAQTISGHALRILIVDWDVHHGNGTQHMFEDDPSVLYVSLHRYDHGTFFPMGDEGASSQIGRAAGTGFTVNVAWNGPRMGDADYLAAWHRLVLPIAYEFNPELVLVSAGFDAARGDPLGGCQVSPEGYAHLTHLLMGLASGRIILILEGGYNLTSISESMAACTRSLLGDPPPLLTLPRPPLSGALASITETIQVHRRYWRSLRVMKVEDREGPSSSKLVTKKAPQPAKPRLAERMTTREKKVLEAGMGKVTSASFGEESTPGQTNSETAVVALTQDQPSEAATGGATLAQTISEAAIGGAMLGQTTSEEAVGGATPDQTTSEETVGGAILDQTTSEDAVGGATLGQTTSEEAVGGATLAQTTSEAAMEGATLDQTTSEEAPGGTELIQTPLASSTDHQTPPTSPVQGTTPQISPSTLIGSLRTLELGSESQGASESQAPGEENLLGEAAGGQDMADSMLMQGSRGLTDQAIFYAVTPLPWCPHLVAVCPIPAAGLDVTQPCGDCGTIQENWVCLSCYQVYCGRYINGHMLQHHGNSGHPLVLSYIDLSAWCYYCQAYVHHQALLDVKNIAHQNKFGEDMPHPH

Full length Human HDAC8 = biological target: T2, Full length Human HDAC8 (Homo sapiens, UniProt Q9BY41)
T2 sequence (Q9BY41 1-377): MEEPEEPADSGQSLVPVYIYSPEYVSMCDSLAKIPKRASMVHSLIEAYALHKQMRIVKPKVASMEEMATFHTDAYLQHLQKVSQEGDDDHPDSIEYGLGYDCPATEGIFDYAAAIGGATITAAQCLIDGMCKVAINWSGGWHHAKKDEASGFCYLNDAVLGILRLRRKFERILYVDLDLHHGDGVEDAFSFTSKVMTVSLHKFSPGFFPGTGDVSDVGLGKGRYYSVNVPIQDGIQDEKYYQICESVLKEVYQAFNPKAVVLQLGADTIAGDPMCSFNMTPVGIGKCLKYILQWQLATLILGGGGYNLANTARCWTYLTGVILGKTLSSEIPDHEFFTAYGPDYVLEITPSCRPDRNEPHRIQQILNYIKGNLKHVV

[2] = Metabolic stability in liver microsomes: Mouse BL6; type: in vitro ADME; details: 1 μM compound, 0.3 mg/mL protein, NADPH, 37° C., read-out: Mouse BL6 Liver Microsome Stability Half-life
Full length Human HDAC1 = Full length Human HDAC1 (Homo sapiens, UniProt Q13547)
Full length Human HDAC1, sequence (Q13547 whole entry, the tested form may be a part): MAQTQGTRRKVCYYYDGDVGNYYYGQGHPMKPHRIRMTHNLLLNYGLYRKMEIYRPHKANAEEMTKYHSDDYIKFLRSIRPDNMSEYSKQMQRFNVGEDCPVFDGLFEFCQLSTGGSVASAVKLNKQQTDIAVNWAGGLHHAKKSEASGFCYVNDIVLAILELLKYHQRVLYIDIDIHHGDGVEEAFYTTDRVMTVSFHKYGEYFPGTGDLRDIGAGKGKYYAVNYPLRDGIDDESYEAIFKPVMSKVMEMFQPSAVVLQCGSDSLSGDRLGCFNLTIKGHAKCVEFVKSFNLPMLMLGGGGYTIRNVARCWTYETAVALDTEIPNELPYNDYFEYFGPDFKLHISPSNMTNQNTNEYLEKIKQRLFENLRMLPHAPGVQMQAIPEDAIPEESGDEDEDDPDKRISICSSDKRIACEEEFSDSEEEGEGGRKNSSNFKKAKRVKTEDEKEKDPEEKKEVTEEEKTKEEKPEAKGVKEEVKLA

Human HDAC7 aa 518-end = biological target: T3, Human HDAC7 aa 518-end (Homo sapiens, UniProt Q8WUI4)
T3 sequence (Q8WUI4 518-952 limits assumed): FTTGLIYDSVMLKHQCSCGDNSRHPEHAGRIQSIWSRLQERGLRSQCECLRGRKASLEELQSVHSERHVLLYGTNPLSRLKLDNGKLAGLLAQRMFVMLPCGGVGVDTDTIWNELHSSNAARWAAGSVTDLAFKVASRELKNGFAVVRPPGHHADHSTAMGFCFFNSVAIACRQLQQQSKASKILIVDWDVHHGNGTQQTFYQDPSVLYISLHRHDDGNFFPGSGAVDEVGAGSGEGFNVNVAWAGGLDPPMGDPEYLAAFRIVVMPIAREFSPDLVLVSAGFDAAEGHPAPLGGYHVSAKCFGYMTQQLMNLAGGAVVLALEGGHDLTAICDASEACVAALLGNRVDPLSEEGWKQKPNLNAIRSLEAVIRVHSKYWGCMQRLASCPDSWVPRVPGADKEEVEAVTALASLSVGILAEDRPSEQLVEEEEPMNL

[3] = biological target: Human HDAC9 a.a. 604-1066 (Homo sapiens, UniProt Q9UKV0)
Human HDAC9 a.a. 604-1066, sequence (Q9UKV0 604-1066 isoform Q9UKV0-5): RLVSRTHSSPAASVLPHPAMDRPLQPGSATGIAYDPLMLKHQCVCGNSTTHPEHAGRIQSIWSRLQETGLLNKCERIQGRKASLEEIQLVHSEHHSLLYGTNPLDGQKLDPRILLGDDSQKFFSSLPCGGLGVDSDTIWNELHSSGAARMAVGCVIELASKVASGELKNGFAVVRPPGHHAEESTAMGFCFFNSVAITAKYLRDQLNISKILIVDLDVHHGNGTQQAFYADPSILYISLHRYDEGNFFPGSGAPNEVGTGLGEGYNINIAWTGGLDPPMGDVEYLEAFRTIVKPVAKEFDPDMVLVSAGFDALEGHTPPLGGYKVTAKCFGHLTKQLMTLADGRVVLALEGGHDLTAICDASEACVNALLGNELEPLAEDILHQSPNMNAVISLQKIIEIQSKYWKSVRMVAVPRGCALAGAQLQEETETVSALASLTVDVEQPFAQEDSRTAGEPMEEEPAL

Full length Human HDAC10 = biological target: T4, Full length Human HDAC10 (Homo sapiens, UniProt Q969S8)
T4 sequence (Q969S8 1-669): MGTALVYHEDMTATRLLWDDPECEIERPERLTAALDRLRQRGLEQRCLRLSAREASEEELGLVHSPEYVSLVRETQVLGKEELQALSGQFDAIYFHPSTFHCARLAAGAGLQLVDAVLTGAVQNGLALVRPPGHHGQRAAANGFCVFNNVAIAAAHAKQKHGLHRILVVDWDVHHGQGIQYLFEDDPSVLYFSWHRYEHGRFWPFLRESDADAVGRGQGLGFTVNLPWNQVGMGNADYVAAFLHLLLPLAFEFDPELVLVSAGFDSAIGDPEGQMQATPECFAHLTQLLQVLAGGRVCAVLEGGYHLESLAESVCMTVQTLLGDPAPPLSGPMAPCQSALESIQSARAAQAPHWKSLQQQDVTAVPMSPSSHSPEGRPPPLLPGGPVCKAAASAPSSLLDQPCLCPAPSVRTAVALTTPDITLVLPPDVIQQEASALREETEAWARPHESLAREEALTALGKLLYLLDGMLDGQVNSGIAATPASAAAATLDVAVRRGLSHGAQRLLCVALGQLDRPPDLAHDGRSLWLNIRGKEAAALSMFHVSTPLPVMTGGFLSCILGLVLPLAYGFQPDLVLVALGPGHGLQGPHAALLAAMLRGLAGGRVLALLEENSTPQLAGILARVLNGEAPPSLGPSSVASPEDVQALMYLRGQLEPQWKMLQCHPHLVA

[4] = tested on: tubulin acetylation (acTubK40) in undifferentiated SH-SY5Y cells; assay: Tubulin acetylation in cells (Western immunoblot); type: cell-based; details: Homo sapiens, 4 hours, acetylTubulin/Tubulin ratio
Protocol: (§1) Compound EC50 Determination for Tubulin- and Histone H3 Acetylation in Cells
(§2) Estimation of the EC50 for exemplary compounds to alter target protein acetylation in undifferentiated SH-SY5Y cells was performed using standard Western immunoblotting methods. […] SH-SY5Y cells were grown to 90% confluency on sterile cell growth plates. 10 mM compound stocks prepared in DMSO and two-fold serial dilutions were prepared from the stock and applied to cells to achieve a 12-point concentration range in cell media from an upper limit of 10 μM to a lower limit of DMSO [zero compound].
(§3) Cells were incubated under normal growth conditions (37° C., 5% CO2) in the presence of compound for 4 hours, then media was aspirated and cells were rinsed two times with 1×DPBS with calcium and magnesium warmed to 37° C. Cells were frozen directly on the plates on a bed of dry ice for 5 min, then stored at −80° C. until protein extraction.
(§4) Protein extraction was performed in RIPA buffer (50 mM Tris-HCL pH 8.0, 150 mM NaCl, 0.5% sodium deoxycholate, 0.1% sodium dodecyl sulfate, 1% NP-40) supplemented with Pierce protease inhibitor mini tables (Thermofisher cat #A32953) exactly as described by the manufacturer. After thawing the plate on a bed of wet ice for 10 minutes, lysis buffer was added to each well (e.g. 100 μL per well of a 24-well plate) and cells scraped from the bottom of each well. Lysates were then sonicated over ice (40% power, 30 pulses of 1 second on, 2 seconds off), centrifuged at 16,000 g for 10 min at 4° C., and the clarified supernatant saved. Protein concentration was determined by BCA assay and at least 3 μg prepared per lane by combining lysate supernatant aliquot with 1/3 total volume of 3× gel loading buffer containing DTT (NEB Cat. #B7703S), heating for 5 minutes at 95° C., briefly centrifuging and then loading on an SDS-PAGE gel.
(§5) Proteins were resolved on a 4-20% Tris-Glycine gel and transferred to PVDF membrane using an iBlot2 dry transfer system. The membrane was then blocked for at least 30 minutes at room temperature in TBST containing 5% milk or 5% bovine serum albumin, then incubated overnight at 4° C. with a single primary antibody from the following table:
(§6) Following primary antibody incubation, membranes were washed, incubated in secondary antibody, washed and incubated in ECL prime western blotting detection reagent (Amersham #RPN223) with membrane exposure and ECL signal capture in a LI-COR Odyssey Imaging system. […] Subsequent densitometry of immunoreactive bands was performed using the ImageStudio software and Microsoft Excel resulting in the following ratios: acetylTubulin/Tubulin and acetyl histone H3K9/histone H3. Raw ratios were uploaded to GraphPad Prism v7.0 with EC50 values modeled using the variable slope equation for log-transformed data [log(agonist) vs response in Prism].

[5] = tested on: histone H3 acetylation (acH3K9) in undifferentiated SH-SY5Y cells; assay: Histone H3 acetylation in cells (Western immunoblot); type: cell-based; details: Homo sapiens, 4 hours, acetyl histone H3K9/histone H3 ratio
Protocol: as §1, §2, §3, §4, §5, §6

[6] = brain, read-out: Mouse Brain Conc (μM) at 15 min
[7] = brain, read-out: Mouse Brain Conc (μM) at 60 min
[8] = plasma, read-out: Mouse Plasma Conc (μM) at 15 min
[9] = plasma, read-out: Mouse Plasma Conc (μM) at 60 min
[10] = read-out: In vitro enzymatic IC50, HDAC Paralog 6, Table 2
[11] = read-out: In vitro enzymatic IC50, HDAC Paralog 8, Table 2

Row | Compound | IC50 (Full length Human HDAC6) [nM] | Selectivity (6 v 8) (fold) (Full length Human HDAC6; Table 1, number) | Selectivity (6 v 8) (fold) (Full length Human HDAC6; Table 1, range class) | IC50 (Full length Human HDAC8) [nM] | IC50 (Human HDAC7 aa 518-end) [nM] | other results
1 | O=C(NO)c1cc(F)c2c(c1)CN(CC13C4C5C6C4C1C6C53)CC2 (centres unmarked) [compound 116, 2-(cuban-1-ylmethyl)-5-fluoro-N-hydroxy-1,2,3,4-tetrahydroisoquinoline-7-carboxamide] | 1 to 100 | 11 | III (III: >10-100) | 100 to 1000 | – | concentration at 15 min [1, 6]: 0.39 µM; concentration at 60 min [1, 7]: 0 µM; concentration at 15 min [1, 8]: 0.25 µM; concentration at 60 min [1, 9]: 0.02 µM; Kp at 15 min [1]: 1.57; Kp at 60 min [1]: 0
2 | O=C(NO)c1ccc(CN2C3CCCC2COC3)c(F)c1 [compound 52] | 1 to 100 | 35.5 | III (III: >10-100) | 100 to 1000 | – | half-life at 1 μM [2]: 4.83 h
3 | O=C(NO)c1cc(F)c2c(c1)CN1CCC[C@@H]1C2 (single isomer, unassigned) [compound 124] | 1 to 100 | – | – | 1000 to 10000 | 1000 to 10000 | IC50 (Full length Human HDAC1): > 100000 nM; IC50 [3]: > 100000 nM
4 | O=C(NO)c1ccc2c(c1)C[C@@H]1CCCN1C2 (single isomer, unassigned) [compound 121] | – | 80.9 | III (III: >10-100) | – | – | concentration at 15 min [1, 6]: 0.19 µM; concentration at 60 min [1, 7]: 0.06 µM; concentration at 15 min [1, 8]: 0.96 µM; concentration at 60 min [1, 9]: 0.01 µM; Kp at 15 min [1]: 0.19; Kp at 60 min [1]: 5.89
5 | O=C(NO)c1ccc(CN2C3CCCC2CCC3)c(F)c1 [compound 60] | 100 to 1000 | 5.8 | II (II: >1-10) | 1000 to 10000 | 1000 to 10000 | IC50 (Full length Human HDAC6; [10]): 100 to 1000 nM; IC50 (Full length Human HDAC8; [11]): 1000 to 10000 nM; IC50 (Full length Human HDAC10): > 100000 nM
6 | C[C@@H]1C[C@H]2c3c(F)cc(C(=O)NO)cc3CCN2C1 (single isomer, unassigned) [compound 152] | 1 to 100 | – | – | 1000 to 10000 | 100 to 1000 | IC50 (Full length Human HDAC1): 10000 to 100000 nM; IC50 [3]: 100 to 1000 nM
7 | Cn1c2c(c3ccccc31)CCN(Cc1ccc(C(=O)NO)cc1F)C2 [compound 45] | 1 to 100 | – | – | 100 to 1000 | – | EC50 [4]: 1700 nM; EC50 [5]: > 10000 nM
8 | O=C(NO)c1cc(F)c2c(c1)CCN(C1CC3(COC3)C1)C2 [compound 111] | 1 to 100 | 461.1 | IV (IV: >100-1000) | 10000 to 100000 | 10000 to 100000 | IC50 (Full length Human HDAC6; [10]): 1 to 100 nM; IC50 (Full length Human HDAC8; [11]): 10000 to 100000 nM; IC50 (Full length Human HDAC10): 10000 to 100000 nM
